In patent US11578130B2, “Regulatable chimeric antigen receptor” (Novartis AG, priority 2013, dated 2023):

Key:
[1] = tested on: PD-1-positive CD4, CD8 and PD-1-negative CD4 T cells; test: FACS analysis of PBMC for PD-1-positive and PD-1-negative T cells after RAD001 treatment; type: in vivo, human; details: adjusted for differences in baseline PD-1 expression; for decrease in PD-1-positive CD8 T cells: pooled RAD001 cohort compared to placebo cohort
[2] = tested on: A/H1N1/California/07/2009 influenza; test: Serum anti-influenza IgG and IgM levels before and 4 weeks post influenza vaccination; type: in vivo, human; details: RAD001 versus placebo cohorts, Kruskal-Wallis rank sum test
Procedure: FIGS. 30A and 30B are graphic representations of IgG and IgM levels before and after influenza vaccination. Levels of anti-A/H1N1/California/07/2009 influenza IgG and IgM were measured in serum obtained from subjects before and 4 weeks post influenza vaccination.

JNL cells = test: Single vector CD19 RCAR constructs in JNL cells, NFAT reporter activation by dimerization molecule; type: cell-based; details: nM to sub-nM doses
Text: The constructs and viral particles were made and tested essentially as described in Example 11. Viral particles were introduced into JNL cells and evaluated for activity essentially as described in Example 1 except that the target was CD19 (as opposed to EGFRviii).
Construct 143775 was introduced into cells and the affect of dimerization molecule concentration on activation evaluated essentially as described in Example 14.

H3N2 A/Victoria/210/2009 = test: Clinical trial: hemagglutination inhibition titers and seroconversion, vaccine strain A/H3N2; type: in vivo, human
Procedure: The trial was observer-blind because the placebo in the RAD001 0.5 mg daily and 20 mg weekly cohorts differed slightly from the RAD001 tablets in those cohorts. […] The treatment duration for all cohorts was 6 weeks during which time subjects underwent safety evaluations in the clinic every 2 weeks. After subjects had been dosed for 4 weeks, RAD001 steady state levels were measured pre-dose and at one hour post dose. After completing the 6 week course of study drug, subjects were given a 2 week drug free break to reverse any possible RAD001-induced immunosuppression, and then were given a 2012 seasonal influenza vaccination (Agrippal®, Novartis Vaccines and Diagnostics, Siena, Italy) containing the strains H1N1 A/California/07/2009, H3N2 A/Victoria/210/2009, B/Brisbane/60/2008. Four weeks after influenza vaccination, subjects had serum collected for influenza titer measurements. Antibody titers to the 3 influenza vaccine strains as well as to 2 heterologous strains (A/H1N1 strain A/New Jersey/8/76 and A/H3N2 strain A/Victoria/361/11) were measured by standard hemagglutination inhibition assay (Kendal, A P et al. (1982) Concepts and procedures for laboratory-based influenza surveillance. Atlanta: Centers for Disease Control and Prevention B17-B35).
The ability of RAD001 to improve immune function in elderly volunteers was evaluated by measuring the serologic response to the 2012 seasonal influenza vaccine. The hemagglutination inhibition (HI) geometric mean titers (GMT) to each of the 3 influenza vaccine strains at baseline and 4 weeks after influenza vaccination are provided in Table 22. The primary analysis variable was the HI GMT ratio (4 weeks post vaccination/baseline). […] This endpoint was chosen because a 1.2-fold increase in the influenza GMT ratio induced by the MF-59 vaccine adjuvant was associated with a decrease in influenza illness (Iob, A et al. (2005) Epidemiol Infect 133:687-693).
Rates of seroconversion 4 weeks after influenza vaccination were also evaluated. Seroconversion was defined as the change from a negative pre-vaccination titer (i.e., HI titer <1:10) to post-vaccination HI titer ≥1:40 or at least 4-fold increase from a non-negative (≥1:10) pre-vaccination HI titer.

[3] = tested on: A/H3N2 strain A/Victoria/361/11; test: Clinical trial: HI titers and seroconversion, heterologous A/H3N2 strain; type: in vivo, human
[4] = tested on: A/H1N1/California/07/2009; test: Clinical trial: serum IgG and IgM specific for A/H1N1/California/07/2009; type: in vivo, human; details: RAD001 versus placebo treated cohorts
Procedure: Levels of IgG and IgM specific for the A/H1N1/California/07/2009 were measured in serum samples taken before and 4 weeks after influenza vaccination as described previously (Spensieri, F. et al. (2013) Proc. Natl. Acad. Sci. USA 110:14330-14335). Results were expressed as fluorescence intensity.

[5] = tested on: PD-1 positive CD4 and CD8 T cells; test: Clinical trial: immunophenotyping of PBMC by flow cytometry; type: in vivo, human
[6] = Clinical trial: RAD001 trough levels in blood; type: in vivo, human
[7] = tested on: Jurkat cells with NFAT-LUC reporter (JNL); test: Activation of RCAR half switches (intracellular FKBP/FRB) by RAD001, NFAT luciferase; type: cell-based; details: RCAR half switches with CD27, CD28, ICOS, OX40 or 41BB costimulatory domain; RAD001 50 nM
Procedure: Jurkat cells with NFAT-LUC reporter (JNL) were grown to the density of 0.5×10^6/ml in Jurkat cell growth media with puromycin at 0.5 μg/ml. For each transfection 2.5×10^6 cells were spin down at 100 g for 10 minutes. Two μg of DNA per construct were used per transfection. Amaxa Nucleofector solution V and supplement I was mixed and 100 μl was added into the tube with DNA construct. The mixture was then added to the cells and transferred to the electroporation cuvette. Electroporation was done under setting X-001 using Amaxa Nucleofector II Device. 0.5 ml of growth media was added immediately after electroporation and the mixture were transferred into 2 ml growth media in one well of the 6-well plate.
After one hour, RAD001 compound was delivered at 50 nM when testing RCARs with different costimulatory signaling domains (FIGS. 44A and 44B), or various concentrations: 0 nM, 0.01 nM, 0.03 nM, 0.1 nM, 0.3 nM, 1 nM, 3 nM, and 10 nM (FIGS. 45A and 45B). Tissue culture plate was coated with 5 μg/ml of anti anti-CD19 antibody or isotype control for 2 hrs, blocked with the blocking buffer (DPBS with 5% serum) for 1 hour. The transfected cells with or without RAD001 were resuspended and added to the target plate with 100 μl per well and incubated for 18 hrs. […] The samples were incubated for 5 min at 37° C. and then luminescence is measured using Envision plate reader.

With `CO[C@H]1C[C@@H]2CC[C@@H](C)[C@@](O)(O2)C(=O)C(=O)N2CCCC[C@H]2C(=O)O[C@H]([C@H](C)C[C@@H]2CC[C@@H](OCCO)[C@H](OC)C2)CC(=O)[C@H](C)/C=C(\C)[C@@H](O)[C@@H](OC)C(=O)[C@H](C)C[C@H](C)/C=C/C=C/C=C/1C` [RAD001, (1R,9S,12S,15R,16E,18R,19R,21R,23S,24E,26E,28E,30S,32S,35R)-1,18-dihydroxy-12-{(1R)-2-[(1S,3R,4R)-4-(2-hydroxyethoxy)-3-methoxycyclohexyl]-1-methylethyl}-19,30-dimethoxy-15,17,21,23,29,35-hexamethyl-11,36-dioxa-4-aza-tricyclo[30.3.1.04,9]hexatriaconta-16,24,26,28-tetraene-2,3,10,14,20-pentaone] the “decrease in PD-1-positive CD8 T cells” value ([1]; week 6) was 37.4%, the “decrease in PD-1+ CD4 T cells” value ([1]; week 6, pooled RAD cohort compared to placebo cohort) was 30.2% and the “decrease in PD-1-positive CD8 T cells” value ([1]; week 12) was 41.4%. For the same compound, the “decrease in PD-1-positive CD4 T cells” value ([1]; week 12, pooled RAD cohort compared to placebo cohort) was 32.7%, the “change from baseline to 4 weeks post vaccination in anti-H1N1 influenza IgG levels” value [2] was “No significant difference” and the “change from baseline to 4 weeks post vaccination in anti-H1N1 influenza IgM levels” value [2] was “No significant difference”. For the same compound, the “activation of RCAR (Construct 143775) over dimerization molecule concentration” value (JNL cells) was “effective at a broad range of concentrations”, the “HI GMT, A/H3N2” value (H3N2 A/Victoria/210/2009; Baseline (2 weeks prior to influenza vaccination), RAD001 0.5 mg daily, N = 50) was 106.8 and the “HI GMT, A/H3N2” value (H3N2 A/Victoria/210/2009; Baseline (2 weeks prior to influenza vaccination), RAD001 5 mg weekly, N = 49) was 126.04. For the same compound, the “HI GMT, A/H3N2” value (H3N2 A/Victoria/210/2009; Baseline (2 weeks prior to influenza vaccination), RAD001 20 mg weekly, N = 49) was 137.1, the “Percent of subjects with seroconversion to influenza 4 weeks after vaccination, H3N2” value (“Percent of subjects with seroconversion” for short) (H3N2 A/Victoria/210/2009; Intention to Treat Population, 0.5 mg, N = 48) was 27% and the “Percent of subjects with seroconversion” value (H3N2 A/Victoria/210/2009; Intention to Treat Population, 5 mg, N = 49) was 24%. The “Percent of subjects with seroconversion” value (H3N2 A/Victoria/210/2009; Intention to Treat Population, 20 mg, N = 48) was 25%, the “GMT ratio (week 4 post vaccination/baseline), A/H3N2” value (H3N2 A/Victoria/210/2009; RAD001 0.5 mg daily, N = 50) was 2.1 and the “GMT ratio (week 4 post vaccination/baseline), A/H3N2” value (H3N2 A/Victoria/210/2009; RAD001 5 mg weekly, N = 49) was 2.0. The “GMT ratio (week 4 post vaccination/baseline), A/H3N2” value (H3N2 A/Victoria/210/2009; RAD001 20 mg weekly, N = 49) was 2.1, the “Percent of subjects with seroconversion” value (H3N2 A/Victoria/210/2009; Subjects with Baseline Titers <=40, 0.5 mg) was 64% and the “Percent of subjects with seroconversion” value (H3N2 A/Victoria/210/2009; Subjects with Baseline Titers <=40, 5 mg) was 53%. For the same compound, the “Percent of subjects with seroconversion” value (H3N2 A/Victoria/210/2009; Subjects with Baseline Titers <=40, 20 mg) was 71%, the “HI GMT, A/H3N2” value (H3N2 A/Victoria/210/2009; Week 4 after influenza vaccination, RAD001 0.5 mg daily, N = 50) was 194.4 and the “HI GMT, A/H3N2” value (H3N2 A/Victoria/210/2009; Week 4 after influenza vaccination, RAD001 5 mg weekly, N = 49) was 223.0. For the same compound, the “HI GMT, A/H3N2” value (H3N2 A/Victoria/210/2009; Week 4 after influenza vaccination, RAD001 20 mg weekly, N = 49) was 223.0, the “Percentage of subjects who seroconvert to heterologous strain 4 weeks after seasonal influenza vaccination, A/H3N2 strain: A/Victoria/361/11” value ([3]; RAD001 0.5 mg daily) was 38% and the “Percentage of subjects who seroconvert to heterologous strain 4 weeks after seasonal influenza vaccination, A/H3N2 strain: A/Victoria/361/11” value ([3]; RAD001 5 mg weekly, * p-value < 0.05 versus placebo) was 39%*. The “Percentage of subjects who seroconvert to heterologous strain 4 weeks after seasonal influenza vaccination, A/H3N2 strain: A/Victoria/361/11” value ([3]; RAD001 20 mg weekly, * p-value < 0.05 versus placebo) was 40%*, the “increase in the HI GMT ratios for the heterologous strain” value ([3]; RAD001 as compared to placebo cohorts) was “higher” and the “H3N2 seroconversion rate, heterologous strain” value ([3]; pooled RAD001 cohorts, versus 20% placebo (p=0.007)) was 39%. For the same compound, the “post-vaccination anti-influenza IgM and IgG levels” value [4] was “did not differ”, the “percentage of PD-1 negative CD4 T cells” value ([5]; RAD001 cohorts as compared to the placebo cohorts) was “increased” and the “percentage of CD4 PD-1 positive T cells” value ([5]; week 6 and 12, all RAD001 cohorts) was “decreased from baseline”. The “percentage of CD8 PD-1 positive cells” value ([5]; week 6 and 12, the two lower dose RAD001 cohorts) was “decreased from baseline”, the “average RAD001 trough level” value ([6]; 5 mg weekly, 0.3 ng/ml is the lower limit of quantification) was “below detection limits” and the “trough level of study regimens relative to approved regimens, fold lower” value ([6]; dosing regimens used in the immunization study) was 3-20 fold. For the same compound, the “target-dependent NFAT activity” value [7] was “all able to activate the target-dependent NFAT activity”.
